Results as given in article PMC6804443 (Acta Pharmaceutica Sinica. B, 2019).
Read-outs that look alike come from different tables or passages of the source.

How the values were obtained:
OATP1B3 [1] = target: T1, OATP1B3 (Homo sapiens, UniProt Q9NPD5); details: for Inhibition DDI index, OATP1B3: antibiotic as perpetrator, salvianolic acid B (X10) as victim, (Cmax × fu-p × R)/IC50
T1 sequence (Q9NPD5 1-702): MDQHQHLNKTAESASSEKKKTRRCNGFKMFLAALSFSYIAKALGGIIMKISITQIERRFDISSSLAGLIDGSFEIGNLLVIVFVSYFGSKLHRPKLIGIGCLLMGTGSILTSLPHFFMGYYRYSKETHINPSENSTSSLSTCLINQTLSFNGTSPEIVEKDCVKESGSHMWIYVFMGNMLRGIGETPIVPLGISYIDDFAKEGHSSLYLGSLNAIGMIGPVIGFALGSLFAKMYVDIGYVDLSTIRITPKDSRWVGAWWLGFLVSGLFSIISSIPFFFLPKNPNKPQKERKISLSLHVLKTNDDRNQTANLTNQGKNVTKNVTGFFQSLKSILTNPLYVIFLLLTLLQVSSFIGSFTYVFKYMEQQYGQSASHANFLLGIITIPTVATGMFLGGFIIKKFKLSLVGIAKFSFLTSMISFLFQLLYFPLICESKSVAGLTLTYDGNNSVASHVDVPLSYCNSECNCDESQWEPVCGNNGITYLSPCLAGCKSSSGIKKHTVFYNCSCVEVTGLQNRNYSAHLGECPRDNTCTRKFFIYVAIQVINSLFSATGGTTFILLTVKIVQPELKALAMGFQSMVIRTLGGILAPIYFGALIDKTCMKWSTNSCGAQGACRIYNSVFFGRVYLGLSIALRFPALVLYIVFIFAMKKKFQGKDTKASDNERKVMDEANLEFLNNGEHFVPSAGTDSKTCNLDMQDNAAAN

OATP1B3 [2] = target: T1, OATP1B3; assay: in vitro
OAT3 = target: T2, OAT3 (Homo sapiens, UniProt Q8TCC7); assay: Reported in vitro interaction with OAT3; type: in vitro ADME; details: estimated from reported Cmax, fu-p and literature potency
T2 sequence (Q8TCC7 1-542): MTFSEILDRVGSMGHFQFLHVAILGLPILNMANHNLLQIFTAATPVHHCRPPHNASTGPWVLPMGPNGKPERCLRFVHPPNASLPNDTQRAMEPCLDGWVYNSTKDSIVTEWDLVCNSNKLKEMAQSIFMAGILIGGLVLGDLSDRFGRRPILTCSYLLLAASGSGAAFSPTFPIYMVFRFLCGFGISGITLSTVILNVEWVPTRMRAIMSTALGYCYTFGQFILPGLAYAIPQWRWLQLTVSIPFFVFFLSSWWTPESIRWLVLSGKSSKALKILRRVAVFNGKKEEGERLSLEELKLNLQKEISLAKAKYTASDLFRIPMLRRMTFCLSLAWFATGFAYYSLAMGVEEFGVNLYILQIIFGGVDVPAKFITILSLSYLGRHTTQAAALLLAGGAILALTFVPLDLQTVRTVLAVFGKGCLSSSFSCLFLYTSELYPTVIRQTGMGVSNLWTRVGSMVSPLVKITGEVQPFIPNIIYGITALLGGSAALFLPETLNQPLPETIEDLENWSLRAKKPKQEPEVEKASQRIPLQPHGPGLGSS

OATP1B3 [3] = target: T1, OATP1B3; details: IC50, OATP1B3 [X10], mean ± SD (n = 3)
ALDH = type: in vitro ADME; details: human, pooled human liver cytosol
OAT1 [4] = target: T3, OAT1 (Homo sapiens, UniProt Q4U2R8); assay: OAT1 inhibition by antibiotics, transfected HEK293 cells, tanshinol as substrate; details: for Inhibition DDI index, OAT1: antibiotic as perpetrator, tanshinol (X8) as victim, (Cmax × fu-p × R)/IC50; for inhibition at 1000 μmol/L: human
T3 sequence (Q4U2R8 1-563): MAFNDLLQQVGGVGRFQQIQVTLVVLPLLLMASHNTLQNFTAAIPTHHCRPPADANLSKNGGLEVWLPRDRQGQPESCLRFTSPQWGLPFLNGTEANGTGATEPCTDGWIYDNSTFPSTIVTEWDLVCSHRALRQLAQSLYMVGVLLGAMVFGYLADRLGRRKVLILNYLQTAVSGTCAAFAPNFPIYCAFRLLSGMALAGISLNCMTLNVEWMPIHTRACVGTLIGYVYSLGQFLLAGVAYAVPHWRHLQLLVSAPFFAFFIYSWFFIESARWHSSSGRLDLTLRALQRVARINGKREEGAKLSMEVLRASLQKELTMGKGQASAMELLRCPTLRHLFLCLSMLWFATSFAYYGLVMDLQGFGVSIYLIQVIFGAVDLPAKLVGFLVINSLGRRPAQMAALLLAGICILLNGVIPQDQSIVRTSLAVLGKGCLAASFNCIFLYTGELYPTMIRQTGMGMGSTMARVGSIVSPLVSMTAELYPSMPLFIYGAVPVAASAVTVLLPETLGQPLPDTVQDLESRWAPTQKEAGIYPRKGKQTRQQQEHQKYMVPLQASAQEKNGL

OAT2 [5] = target: T4, OAT2 (Homo sapiens, UniProt Q9Y694); assay: OAT2 inhibition by antibiotics, transfected HEK293 cells, tanshinol as substrate; type: in vitro ADME; details: for inhibition at 1000 µM: HEK293, read-out: Inhibition of OAT2
T4 sequence (Q9Y694 1-546 isoform Q9Y694-2): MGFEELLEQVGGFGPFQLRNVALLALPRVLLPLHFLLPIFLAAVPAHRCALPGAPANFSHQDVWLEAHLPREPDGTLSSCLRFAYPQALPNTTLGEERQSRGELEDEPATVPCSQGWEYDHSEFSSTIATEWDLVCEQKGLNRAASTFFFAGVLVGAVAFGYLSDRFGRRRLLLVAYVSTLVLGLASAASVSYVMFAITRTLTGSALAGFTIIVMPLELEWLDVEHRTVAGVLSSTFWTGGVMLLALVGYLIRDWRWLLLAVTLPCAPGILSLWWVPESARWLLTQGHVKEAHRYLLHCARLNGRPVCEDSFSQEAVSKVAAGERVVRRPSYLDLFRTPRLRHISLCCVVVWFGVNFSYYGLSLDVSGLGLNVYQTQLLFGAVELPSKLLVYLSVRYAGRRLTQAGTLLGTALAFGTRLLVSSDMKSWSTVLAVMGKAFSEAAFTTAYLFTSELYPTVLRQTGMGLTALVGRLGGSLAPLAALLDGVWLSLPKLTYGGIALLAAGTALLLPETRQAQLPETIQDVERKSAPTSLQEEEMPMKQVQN

UGT2B15 = target: T5, UGT2B15 (Homo sapiens, UniProt P54855); type: in vitro ADME; details: for inhibition at 1000 μmol/L: human, cDNA-expressed UGT2B15
T5 sequence (P54855 24-530): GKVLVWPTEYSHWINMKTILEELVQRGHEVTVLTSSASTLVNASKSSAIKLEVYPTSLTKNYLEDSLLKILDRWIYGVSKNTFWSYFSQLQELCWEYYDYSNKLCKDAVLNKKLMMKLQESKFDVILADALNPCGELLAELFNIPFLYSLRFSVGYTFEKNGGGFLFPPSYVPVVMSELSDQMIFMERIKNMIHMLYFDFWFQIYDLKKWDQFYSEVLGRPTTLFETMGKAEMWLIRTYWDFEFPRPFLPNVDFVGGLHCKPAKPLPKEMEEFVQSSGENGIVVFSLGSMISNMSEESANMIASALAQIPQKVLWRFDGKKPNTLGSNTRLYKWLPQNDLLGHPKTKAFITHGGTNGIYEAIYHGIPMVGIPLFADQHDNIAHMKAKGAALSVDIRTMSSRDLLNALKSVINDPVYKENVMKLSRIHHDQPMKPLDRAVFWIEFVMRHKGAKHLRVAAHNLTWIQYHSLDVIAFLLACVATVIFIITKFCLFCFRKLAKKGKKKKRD

[6] = type: in vivo; details: human; XueBiJing at label dose 100 mL
[7] = system: P450 enzymes, UGTs, SULTs, OATP1B1/1B3, OAT1/3, OCT2, MATE1/2-K, MDR1, BCRP; details: cited from earlier work
[8] = XueBiJing compounds; cited from earlier work
[9] = cited from earlier work; for fu-p (unbound fraction in plasma): human plasma; for Cmax / VSS / t1/2 / Major elimination route / fe-U (fraction of dose excreted unchanged into urine): human; for Cmax / VSS / t1/2: XueBiJing 100 mL via 75-min intravenous infusion
[10] = XueBiJing compounds, cited from earlier work; for LogD(7.4): pH 7.4
OAT1 [11] = target: T3, OAT1; assay: OAT1 inhibition by XueBiJing compounds, transfected HEK293 cells [PAH]; type: in vitro ADME
CYP3A4 = details: higher concentrations; range over the named compounds and enzymes
OAT2 [12] = target: T4, OAT2; type: in vitro ADME
CYP2B6 = CYP2B6 induction by XueBiJing compounds in cryopreserved human hepatocytes; type: in vitro ADME; details: higher concentrations; range over the named compounds and enzymes

Inhibition DDI index, OATP1B3 (OATP1B3 [1])	inhibition at 1000 μmol/L (OATP1B3 [2]) [%]	IC50 (OATP1B3 [3]) [µM]	IC50 (OAT1 [4]) [µM]	Inhibition DDI index, OAT1 (OAT1 [4])	inhibition at 1000 μmol/L (OAT1 [4]) [%]	Compound	Related metabolism and transport data (substrate status) [7]	Membrane permeability [8]	fu-p (unbound fraction in plasma) [9] [%]	Cmax [9] [nM]	VSS [9] [L/kg]	t1/2 [9] [h]	Major elimination route [9]	pKa [10]	LogD(7.4) [10]	other results
1.70	> 90	53 ± 20				Cn1nnnc1SCC1=C(C(=O)O)N2C(=O)[C@@H](NC(=O)[C@H](O)c3ccccc3)[C@H]2SC1 [A11, cefamandole]										DDI index, inhibiting OAT3 (OAT3): ≥ 1.0
4.64	> 90	11 ± 2	99 ± 31	0.52	63 to 88	Cc1onc(-c2ccccc2)c1C(=O)N[C@@H]1C(=O)N2[C@@H]1SC(C)(C)[C@@H]2C(=O)O [A17, oxacillin]										IC50 (ALDH): 465 ± 72 µM; inhibition at 1000 μmol/L (ALDH): 56 to 88%; IC50 (OAT2 [5]): 467 ± 97 µM; inhibition at 1000 µM (OAT2 [5]): 60 to 84%; Inhibition DDI index, OAT2 (OAT2 [5]; antibiotic as perpetrator, tanshinol (X8) as victim, (Cmax × fu-p × R)/IC50): 0.11
1.07	> 90	26 ± 9	173 ± 27	0.16	≥ 90	Cc1onc(-c2c(F)cccc2Cl)c1C(=O)N[C@@H]1C(=O)N2[C@@H]1SC(C)(C)[C@@H]2C(=O)O [A19, flucloxacillin]										IC50 (ALDH): 45 ± 6 µM; inhibition at 1000 μmol/L (ALDH): 56 to 88%; IC50 (UGT2B15): 336 ± 83 µM; inhibition at 1000 μmol/L (UGT2B15): 60 to 88%; IC50 (OAT2 [5]): 729 ± 131 µM; inhibition at 1000 µM (OAT2 [5]): 60 to 84%
						CC(=O)NC[C@H]1CN(c2ccc(N3CCOCC3)c(F)c2)C(=O)O1 [A29, linezolid]										DDI index, inhibiting OAT3 (OAT3): ≥ 1.0
2.16	64 to 88	19 ± 8	189 ± 75	0.22	63 to 88	C[C@@H](c1ncncc1F)[C@](O)(Cn1cncn1)c1ccc(F)cc1F [A45, voriconazole]										IC50 (UGT2B15): 55 ± 6 µM; Inhibition DDI index, UGT2B15 (UGT2B15; antibiotic as perpetrator, senkyunolide I (X5) as victim, (Cmax × fu-p × R)/IC50): 0.75; inhibition at 1000 μmol/L (UGT2B15): ≥ 90%
						C[C@@]12C[C@@]3(O)O[C@@H](O1)[C@]1(COC(=O)c4ccccc4)[C@H]3C[C@@]12O[C@@H]1O[C@H](CO)[C@@H](O)[C@H](O)[C@H]1O [X2, paeoniflorin]	Not the substrate of P450 enzymes, UGTs, SULTs, OATP1B1/1B3, OAT1/3, OCT2, MATE1/2-K, MDR1, or BCRP	Poor	82	18200	0.19	1.1	Renal excretion, GF-based	11.5	0.1	Unbound Cmax [6]: 15 µmol/L; fe-U (fraction of dose excreted unchanged into urine) [9]: 63%
						C[C@]12C[C@@H](O)[C@@H]3C[C@@]1(O[C@@H]1O[C@H](CO)[C@@H](O)[C@H](O)[C@H]1O)[C@@]3(COC(=O)c1ccccc1)C(=O)O2 [X4, albiflorin]	Not the substrate of P450 enzymes, UGTs, SULTs, OATP1B1/1B3, OAT1/3, OCT2, MATE1/2-K, MDR1, or BCRP	Poor	83	800	0.08	0.7	Renal excretion, GF-based	12.8	−0.9	fe-U (fraction of dose excreted unchanged into urine) [9]: 62%
						CCCCC1(O)OC(=O)C2=C1CCC=C2 (centres unmarked) [X7, senkyunolide G]	Poor UGT substrate	Good	3	500	0.10	2.3	Hepatic glucuronidation	10.7	1.5	Inhibition of OAT1 (OAT1 [11]; 100 μmol/L): > 50%; IC50 (OAT1 [11]; read-out: IC50, OAT1 [PAH], mean ± SD (n = 3)): 11 ± 3 µM; mRNA-T/U ratio, CYP3A4 (CYP3A4): 4.0 to 9.6; Inhibition of OAT2 (OAT2 [12]; 100 μmol/L): > 50%; IC50 (OAT2 [12]; read-out: IC50, OAT2 [prostaglandin F2α], mean ± SD (n = 3)): 51 ± 5 µM; mRNA-T/U ratio, CYP2B6 (CYP2B6): 4.0 to 9.6
0.60						teicoplanin [A26]										IC50 (OATP1B3 [1]; read-out: IC50, OATP1B3 [X10], mean ± SD (n = 3)): 8 ± 2 µM; Inhibition of OATP1B3 (OATP1B3 [1]; test concentration 100 μmol/L): > 90%; IC50 (OAT2 [5]; read-out: IC50, OAT2 [X8], mean ± SD (n = 3)): 64 ± 14 µM
